# Entries after “also recorded” stand apart in the source; their conditions may differ. Read-outs that look alike come from different tables or passages of the source.
# How the values were obtained:
# Arabidopsis aba2-1 = assay: Leaf transpiration experiment (leaf temperature by thermal imager), Arabidopsis; type: in vivo, Arabidopsis thaliana; conditions: for duration of the leaf temperature increase: FIG. 4a, 4c; for inhibitory effect on leaf transpiration compared with ABA: Arabidopsis aba2-1, spray
# Protocol: ABA synthesis mutant aba2-1 was used in Arabidopsis leaf transpiration experiment. […] Therefore, this mutant is used to exclude the effect of endogenous ABA on the transpiration experiment. The plants were sprayed with a solution containing 0.05% tween-20 and corresponding concentrations of (+)-ABA/0224/0304/0706/0715/0428 or 0.05% Tween-20 and 0.05% DMSO (control) after three weeks of continuous watering with an amount of 1.2 ml/pot. Leaf transpiration experiments of soybeans were conducted at 26° C. with long-day lighting and soybeans were sprayed with a solution containing 0.1% tween-20 and 20 μM (+)-ABA/0224/0304 compound or 0.1% Tween-20 and 0.05% DMSO (control) 14 days after sowing with an amount of 4 ml/pot; the leaf transpiration experiments of cottons were sprayed with a solution containing 0.1% tween-20 and 20 μM (+)-ABA/0224 compound or 0.1% Tween-20 and 0.05% DMSO, respectively, 25 days after sowing with an amount of 4 ml/pot; the leaf transpiration experiments of wheats were sprayed with a solution containing 0.1% tween-20 and 100 μM (+)-ABA/0224 compound or 0.1% Tween-20 and 0.05% DMSO (control) 18 days after sowing with an amount of 6 ml/pot. Images were taken daily using the FLIR A655sc thermal imager at the same time before and after spraying.
# In this experiment, the temperature change of leaf surface was observed and recorded by an infrared camera, thus reflecting the strength of plant transpiration. The stronger the transpiration, the lower the leaf temperature.
# [1] = target: T1, PYL2 receptor-HAB1 protein phosphatase complex (Arabidopsis thaliana, UniProt O80992); assay: AlphaScreen assay: promotion of PYL2 receptor binding to PP2C protein phosphatase HAB1; conditions: 6×His-SUMO-tagged PYL2 (aa 14-188), Biotin-tagged HAB1 (aa 172-511), 100 nM each, pH 7.4, 1.5 h room temperature
# T1 construct: made in house; host or cells: E. coli BL21 (DE3)
# T1 sequence (O80992 14-188): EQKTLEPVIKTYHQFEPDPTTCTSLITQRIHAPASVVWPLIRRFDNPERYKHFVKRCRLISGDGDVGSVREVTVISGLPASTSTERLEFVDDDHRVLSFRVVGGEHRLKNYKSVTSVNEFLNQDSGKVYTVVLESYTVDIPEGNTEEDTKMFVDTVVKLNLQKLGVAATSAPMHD
# T1 sequence (Q9CAJ0 172-511 partner limits assumed): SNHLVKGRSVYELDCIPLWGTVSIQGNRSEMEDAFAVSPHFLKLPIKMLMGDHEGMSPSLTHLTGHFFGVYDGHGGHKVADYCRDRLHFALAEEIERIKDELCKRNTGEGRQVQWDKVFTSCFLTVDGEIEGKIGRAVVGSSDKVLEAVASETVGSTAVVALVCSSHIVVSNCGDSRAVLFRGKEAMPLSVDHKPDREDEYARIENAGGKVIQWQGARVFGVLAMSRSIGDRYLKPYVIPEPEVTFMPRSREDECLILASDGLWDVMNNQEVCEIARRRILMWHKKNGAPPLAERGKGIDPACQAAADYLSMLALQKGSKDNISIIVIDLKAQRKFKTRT
# Source text: The construction method of recombinant plasmids for the Arabidopsis thaliana genes PYL1 (amino acid sequence 36-211), PYL2 (amino acid sequence 14-188) with dual tags of 6×His and SUMO sequence and the Arabidopsis thaliana gene HAB1 (amino acid sequence 172-511) with the Biotin tag sequence is described in detail in “A gate-latch-lock mechanism for hormone signaling by abscisic acid receptors” (Nature, Vol 462, 2009). The construction method of recombinant plasmids for PYR1 and PYL7 (whole gene coding sequence) and Soybean GmPYL6 and rice OsPYL2 with dual tags of 6×His and SUMO sequence is the same as that for Arabidopsis PYL2.
# The above recombinant plasmid is transformed into competent cell of E. coli BL21 (DE3) (purchased from NEB company), and inoculated into 200 ml of LB liquid medium containing Amp resistance (purchased from OXOID company) and cultured overnight at 37° C. at 200 rpm; and inoculated into 2 L of LB liquid medium containing Amp resistance at a ratio of 1:50-1:100 for an extended culture, and cultured at 37° C., 200 rpm for 3-4 hours, and at a low temperature of 16° C. until OD600 is about 0.8-1.0. Recombinant plasmids for PYR1/PYL1/PYL2/PYL7/GmPYL6/OsPYL2 with dual tags of 6×His and SUMO sequence were induced overnight with 100 μM of IPTG while HAB1 recombinant plasmid with the Biotin tag sequence was induced simultaneously with 100 μM of IPTG and 40 μM of biotin.
# After 16 hours of induction, the bacterial solution was centrifuged at 4000 rpm for 20 minutes at 4° C. in a low-speed high-capacity centrifuge, and the bacteria cells were collected. Bacteria cells were resuspended in 50 ml of extraction buffer (containing 20 mM Tris, pH 8.0, 200 mM NaCl and 10% (v/v) glycerol) for per 2 L of bacterial solution and then subjected to pressure-breaking at […] and 4° C. for 3-5 times. The broken cells were subjected to ultracentrifugation, centrifuged at 16000 rpm for 30 minutes, and this process was repeated twice. The supernatant was collected and subjected to an affinity chromatography column.
# For PYR/PYL proteins with dual tags of 6×His and SUMO sequences, 50 ml of affinity chromatography Ni column (50 ml Ni-NTA column, available from GE) was used. Firstly, the column was equilibrated with 600 ml of 10% buffer B (containing 20 mM Tris, PH 8.0, 200 mM NaCl, 500 mM imidazole and 10% glycerol), and then eluted with 200 ml of 50% buffer B and finally eluted with 100 ml of 100% buffer B. Proteins for crystal analysis were mixed with ulp1 enzyme at a molar ratio of 1000:1 for enzymatic dialysis overnight. The digested proteins were subjected to affinity chromatography on a Ni column once more. The collected solution was subjected to a HiLoad 26/60 Superdex200 gel filtration column (commercially available from GE) and eluted with an elution solution (containing 25 mM Tris, pH 8.0, 200 mM ammonium acetate, 1 mM dithiotreitol and 1 mM EDTA) to further separate and purify the protein.
# For a HAB1 protein with a Biotin tag sequence, it was subjected to a 50 ml MBP affinity column (available from GE). The column was firstly equilibrated with 600 ml of 10% buffer C (containing 20 mM Tris, pH 8.0, 200 mM NaCl, 10 mM Maltose and 10% Glycerol), and eluted with 200 ml of 50% buffer C and finally eluted with 100 ml of 100% buffer C. The collection solution was subjected to a HiLoad 26/60 Superdex200 gel filtration column and eluted with an elution solution (containing 20 mM Tris, pH 8.0, 200 mM NaCl and 10% Glycerol) to further separate and purify the protein. […]
# [2] = 5 μM spray, after spraying, FIG. 4a-4c
# [3] = 5 μM spray, four days after spraying
structure (smiles),measurement,setting,value
CCCN1C(=O)OC(C)c2cc(NS(=O)(=O)Cc3c(F)c(F)c(C)c(F)c3F)ccc21 (stereo not shown) [Compound 0224],leaf temperature versus DMSO control (leaf transpiration),"Arabidopsis aba2-1; 2 μM or 1 μM spray, four days after spraying, FIG. 4b",still significantly increased compared to that with control (DMSO) treatment; also recorded: still significantly higher than that in the DMSO control
same,leaf temperature versus DMSO control (leaf transpiration),Arabidopsis aba2-1; [2],significantly increased compared to that with control (DMSO) treatment; also recorded: the leaf temperature was higher than that in the DMSO control group
same,leaf temperature versus DMSO control (leaf transpiration),Arabidopsis aba2-1; [3],still significantly higher than that in the DMSO control
same,duration of the leaf temperature increase,Arabidopsis aba2-1; 5 μM spray,longer
same,inhibitory effect on leaf transpiration compared with ABA,Arabidopsis aba2-1,better than that of ABA
same,EC50,"[1]; FIG. 2c, read-out: EC50",29.6 nM
same,EC50,"[1]; FIG. 2e, read-out: EC50",92.1 nM
Cc1c(F)c(F)c(CS(=O)(=O)Nc2ccc3c(c2)C(C)OC(=O)N3CCCF)c(F)c1F (stereo not shown) [Compound 0715],leaf temperature versus DMSO control (leaf transpiration),Arabidopsis aba2-1; [2],significantly increased compared to that with control (DMSO) treatment; also recorded: significantly increased compared to the control (DMSO) treatment
same,duration of the leaf temperature increase,Arabidopsis aba2-1; 5 μM spray,equivalent to that of 0224
same,EC50,"[1]; FIG. 2e, read-out: EC50",99.5 nM
"CC1=CC(=O)CC(C)(C)[C@@]1(O)/C=C/C(C)=C\C(=O)O [ABA, Abscisic Acid, reference compound]",leaf temperature versus DMSO control (leaf transpiration),Arabidopsis aba2-1; [2],significantly increased compared to that with control (DMSO) treatment; also recorded: the leaf temperature was higher than that in the DMSO control group
same,leaf temperature versus DMSO control (leaf transpiration),Arabidopsis aba2-1; [3],had dropped to the level before spraying
same,EC50,"[1]; EC50, FIG. 2c",866 nM
same,EC50,"[1]; EC50, FIG. 2e",4960 nM
same,EC50,"[1]; EC50, FIG. 2f",148 nM
same,EC50,"[1]; EC50, FIG. 2g",3570 nM
CCCN1C(=O)OC(C)(C)c2cc(NS(=O)(=O)Cc3c(F)c(F)c(C)c(F)c3F)ccc21 [Compound 0304],leaf temperature versus DMSO control (leaf transpiration),Arabidopsis aba2-1; [2],significantly increased compared to that with control (DMSO) treatment; also recorded: the leaf temperature was higher than that in the DMSO control group
same,leaf temperature versus DMSO control (leaf transpiration),Arabidopsis aba2-1; [3],still significantly higher than that in the DMSO control
same,inhibitory effect on leaf transpiration compared with ABA,Arabidopsis aba2-1,better than that of ABA
same,EC50,"[1]; FIG. 2c, read-out: EC50",59.3 nM
CCN1C(=O)OC(C)c2cc(NS(=O)(=O)Cc3c(F)c(F)c(C)c(F)c3F)ccc21 (stereo not shown) [Compound 0706],leaf temperature versus DMSO control (leaf transpiration),Arabidopsis aba2-1; [2],significantly increased compared to that with control (DMSO) treatment; also recorded: significantly increased compared to the control (DMSO) treatment
same,duration of the leaf temperature increase,Arabidopsis aba2-1; 5 μM spray,equivalent to that of 0224
same,EC50,"[1]; FIG. 2e, read-out: EC50",101 nM
CCCN1C(=O)OCc2cc(NS(=O)(=O)Cc3c(F)c(F)c(C)c(F)c3F)ccc21 [Compound 0428],leaf temperature versus DMSO control (leaf transpiration),"Arabidopsis aba2-1; 5 μM/2 μM/1 μM, treated for one day, FIG. 4d",significantly increased compared to that with DMSO treatment; also recorded: higher than that in the DMSO control group
same,EC50,"[1]; FIG. 2f, read-out: EC50",19.3 nM

# Source: patent US11076597B2, “High stress resistant plant growth regulator and preparation method and use thereof” (SHANGHAI INSTITUTES FOR BIOLOGICAL SCIENCES, CHINESE …, priority 2015, dated 2021)
